Test results published in US20050009924A1 (priority 2003, published 2005).

Tests used:
human hepatoma G2 cells = experiment: Cytotoxicity assay (XTT colorimetric), Hep G2; type: cell-based; conditions: Homo sapiens, HepG2; 48 h of drug exposure
[1] = MTT relative viability, PhTERT-SEAP (hTERT-BJ1) cells; conditions: human; for viability at 48 h, 1.9 µM / viability at 48 h, 19 µM / viability at 48 h, 190 µM: hTERT-BJ1 cells, stable PhTERT-SEAP reporter clone
[2] = MTT relative viability, PhTERT-SEAP (H1299) cells; conditions: human
[3] = tested on: transcriptional activity of hTERT; experiment: SEAP reporter assay of hTERT expression, PhTERT-SEAP (H1299); type: cell-based, human; conditions: Homo sapiens, NCI-H1299, H1299, read-out: Relative SEAP activity (%)
Procedure, shortened: (§1)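 We treated G418-selected reporter cells with varying drug amounts for 24 h and measured SEAP in the heat-inactivated medium as the rate of 405 nm absorbance increase.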

[4] = tested on: iron-induced lipid peroxidation in rat brain homogenates; experiment: Iron-induced lipid peroxidation in rat brain homogenates; conditions: for Inhibition of LP(10 mM): mean percent inhibition (Table 3); for LP (%) (10 mM): relative percentage of inhibition (Table 1)
rat glioma C6 cells = experiment: Cytotoxicity assay (XTT colorimetric), C6 cells; type: cell-based; conditions: Rattus norvegicus, C6; 48 h of drug exposure
[5] = tested on: transcriptional activity of hTERT; experiment: SEAP reporter assay of hTERT expression, PhTERT-SEAP (hTERT-BJ1); type: cell-based, human; conditions: Homo sapiens, hTERT-BJ1, read-out: Relative SEAP activity (%)
Procedure, shortened: as §1

Structure (SMILES)	IC50 (human hepatoma G2 cells) [µM]	viability at 48 h, 1.9 µM [1] [%]	viability at 48 h, 19 µM [1] [%]	viability at 48 h, 190 µM [1] [%]	viability at 48 h, 1.9 µM [2] [%]	viability at 48 h, 19 µM [2] [%]	viability at 48 h, 190 µM [2] [%]	activity at 1.9 µM [3] [%]	activity at 19 µM [3] [%]	activity at 190 µM [3] [%]	Inhibition of LP(10 mM) ([4]; 10 mM)	IC50 (rat glioma C6 cells) [µM]	activity at 1.9 µM [5] [%]	activity at 19 µM [5] [%]	activity at 190 µM [5] [%]	LP (%) (10 mM) ([4]; 10 mM)	further results
O=C(Oc1cccc2c1C(=O)c1cccc(OC(=O)c3ccccc3Cl)c1C2=O)c1ccccc1Cl	0.04 ± 0.01	107 ± 5.5	92 ± 4.3	40 ± 4	74 ± 5.3	34 ± 3.4	30 ± 1.4	93 ± 4.4	101 ± 4.9	97 ± 5.3	5 ± 0.5%	40.7 ± 4.7	120 ± 10.5	116 ± 3.7	97 ± 10.8		
O=C(Oc1cccc2c1C(=O)c1cccc(OC(=O)c3cccc(Cl)c3)c1C2=O)c1cccc(Cl)c1	15.1 ± 1.9	101 ± 2.3	80 ± 6.7	44 ± 6	98 ± 3.9	88 ± 7.2	46 ± 3.5	83 ± 5.7	92 ± 8.1	81 ± 2.5	1 ± 0.1%	25.1 ± 2.8	154 ± 23	152 ± 15.8	91 ± 25.2		
O=C(Oc1cccc2c1C(=O)c1cccc(OC(=O)c3ccc(Cl)cc3)c1C2=O)c1ccc(Cl)cc1	48.1 ± 4.5	111 ± 6.5	89 ± 14.3	48 ± 9	91 ± 10	57 ± 1.8	31 ± 1	106 ± 4.5	106 ± 4.9	97 ± 4.9	2 ± 0.2%	38.6 ± 3.5	136 ± 5.7	123 ± 6.2	107 ± 6		
O=C1c2cccc(SCC(O)CO)c2C(=O)c2cccc(SCC(O)CO)c21 (centres unmarked)	34.3 ± 1.8											38.5 ± 1.5				83 ± 1.1	viability at 48 h, 2.4 µM [1]: 98 ± 10.7%; viability at 48 h, 24 µM [1]: 86 ± 5.5%; viability at 48 h, 240 µM [1]: 79 ± 8.2%; viability at 48 h, 2.4 µM [2]: 102 ± 6.2%; viability at 48 h, 24 µM [2]: 103 ± 4.2%; viability at 48 h, 240 µM [2]: 83 ± 18.2%; activity at 2.4 µM ([3]; 2.4 μM): 105 ± 21.6%; activity at 24 µM ([3]; 24 μM): 90 ± 5.7%; activity at 240 µM ([3]; 240 μM): 81 ± 6.1%; activity at 2.4 µM ([5]; 2.4 μM): 144 ± 16.9%; activity at 24 µM ([5]; 24 μM): 136 ± 10%; activity at 240 µM ([5]; 240 μM): 142 ± 9.1%
Cc1c(C)c2c(c(C)c1O)CC[C@@](C)(CCC[C@H](C)CCC[C@H](C)CCCC(C)C)O2 [(+)−α-Tocopherol, reference compound]											>100%					>100	Inhibition (%) ([4]; 0.01 mM): 0%; Inhibition (%) ([4]; 0.1 mM): 0%; Inhibition (%) ([4]; 1 mM): 55 ± 1.7%; Inhibition (%) ([4]; 10 mM): 100%
O=C1c2cccc(O)c2C(=O)c2cccc(O)c21 [Anthrarufin, 1,5-dihydroxyanthraquinone, reference compound]											−36 ± 1.1^ %					−36 ± 1.9	
